Reference: US20100048604A1, “Ligands for Aldoketoreductases” (priority 2004, published 2010)

Columns and labels:
Assay in all cases: Enzymatic screening of probes 1-7 against a panel of oxidoreductases
Format in all cases: biochemical
Conditions in all cases: 12 hour incubation, 30-50 μM substrate, pH 7, 250 μM NAD(P)H
[1] = target: T1, Thermoanaerobium brockii alcohol dehydrogenase (TBAD) (Thermoanaerobacter brockii, UniProt P14941)
T1 construct: purchased Sigma (St. Louis, Mo.) Lot Number 033K4093 (catalogue number not given)
T1 sequence (P14941 1-352): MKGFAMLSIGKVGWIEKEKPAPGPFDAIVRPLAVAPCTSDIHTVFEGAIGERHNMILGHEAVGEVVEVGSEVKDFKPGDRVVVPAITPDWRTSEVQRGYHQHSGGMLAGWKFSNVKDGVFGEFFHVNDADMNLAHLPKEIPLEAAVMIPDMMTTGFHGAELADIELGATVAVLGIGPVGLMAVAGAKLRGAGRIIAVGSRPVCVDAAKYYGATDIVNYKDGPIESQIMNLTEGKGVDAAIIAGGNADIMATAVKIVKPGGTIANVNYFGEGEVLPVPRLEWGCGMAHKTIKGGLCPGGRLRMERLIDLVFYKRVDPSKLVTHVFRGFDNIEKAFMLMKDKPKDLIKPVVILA
Experimental: (§1) FIG. 4. Screening of probes 1-7 against a panel of oxidoreductases Percentage fluorescence increase after 12 hour incubation of 30-50 μM substrate, 100 mM phosphate buffer (pH 7), 250 μM NAD(P)H, and 100 nM enzyme. Substrates 1, 2, 3, and 4 monitored at λexc=340 nm, λem=440 nm. Substrates 5, 6, and 7 monitored at λexc=440 nm, λem=510 nm. 3HSD, 3α-hydroxysteroid dehydrogenase (PT, Pseudomonas testosteroni), HLAD, horse liver alcohol dehydrogenase, TBAD, Thermoanaerobium brockii alcohol dehydrogenase, BS 12HSD, Bacillus sp. 12α-hydroxysteroid dehydrogenase, ABAD, amyloid-β binding alcohol dehydrogenase (human), GDH, glycerol dehydrogenase, YADH, yeast alcohol dehydrogenase, LDH, lactate dehydrogenase.
(§2) Probes 1-7 (see FIG. 3) were subsequently tested against a collection of dehydrogenases in the presence of NAD(P)H; the extent of reduction was assessed by the measurement of fluorescence intensity at the emission maximum of each probe (FIG. 4). This assay included enzymes from two major oxidoreductase superfamilies, the short chain alcohol dehydrogenases (SDR) and the aldo-keto reductases (AKR), ranging from bacterial to mammalian and human enzymes.
(§3) Horse Liver alcohol dehydrogenase (Lot Number 51K7520), Thermoanaerobium brockii NADP^+ dependent alcohol dehydrogenase (Lot Number 033K4093), Pseudomonas testosteroni 3α-hydroxysteroid dehydrogenase (Lot Number 053K8624), and Bacillus sphaericus 12α-hydroxysteroid dehydrogenase (Lot Number 70K16621) were purchased from Sigma (St. Louis, Mo.). Yeast alcohol dehydrogenase (Lot Number 93122920), glycerol dehydrogenase (Lot Number 92110122), (D)-lactate dehydrogenase (Lot Number 92419236), (L)-lactate dehydrogenase (Lot Number 92801821), NAD^+, NADP^+, NADH, and NADPH were purchased from Roche. Enzyme activity was confirmed by compliance to supplier's quality control assays prior to usage. Rat and human 3α-hydroxysteroid dehydrogenases were provided by Professor Trevor Penning (University of Pennsylvania School of Medicine) and human amyloid-β peptide binding alcohol dehydrogenase was supplied by Professor Shi Du Yan (Columbia University School for Physicians and Surgeons).
(§4) Enzymatic assays were performed in triplicate on selected fluorogenic substrates according to the following protocol. To each well of a FALCON 96-well black flat bottom plate was added (1) 40 μL of 500 mM potassium phosphate buffer pH 7.0, (2) 113 μL of double deionized water, (3) 25 μL of 2 mM NADH (except for Pseudomonas testosteroni 3α-hydroxysteroid dehydrogenase, rat 3α-hydroxysteroid dehydrogenase, and Thermoanaerobium brockii NADP^+ dependent alcohol dehydrogenase, in which cases 2 mM of NADPH was used), (4) 2 μL of a 3-5 mM solution of substrate in DMSO, and (5) 20 μL of a 40-50 μg/mL solution of enzyme. Reaction volumes were mixed thoroughly after addition of cofactor, substrate, and enzyme and allowed to react 12 hours at 25° C. Scanning of the 96-well plate was performed by the MicroMax 384 connected to a Jobin Yvon Fluorolog through F-3000 fiber optic cables.
(§5) Initial Screening with Fluorogenic Substrates: Screening of the first fluorogenic substrates for enzymatic activity has been described above. In short, 200 μL enzymatic assay volumes containing 100 mM potassium phosphate buffer (pH 7), 250 μM NAD(P)H cofactor, and 30-50 μM of ketones (1-7) were incubated for 12 hours on a black FALCON 96-well plate. Formation of the alcohol reduction product was determined by reading the fluorescence arising from excitation at the corresponding alcohol at either 340 nm (27-30) or 440 nm (31-33).

[2] = target: T2, rat 3α-hydroxysteroid dehydrogenase (Rattus norvegicus, UniProt P23457)
T2 construct: gift of Professor Trevor Penning (University of Pennsylvania School of Medicine)
T2 sequence (P23457 1-322): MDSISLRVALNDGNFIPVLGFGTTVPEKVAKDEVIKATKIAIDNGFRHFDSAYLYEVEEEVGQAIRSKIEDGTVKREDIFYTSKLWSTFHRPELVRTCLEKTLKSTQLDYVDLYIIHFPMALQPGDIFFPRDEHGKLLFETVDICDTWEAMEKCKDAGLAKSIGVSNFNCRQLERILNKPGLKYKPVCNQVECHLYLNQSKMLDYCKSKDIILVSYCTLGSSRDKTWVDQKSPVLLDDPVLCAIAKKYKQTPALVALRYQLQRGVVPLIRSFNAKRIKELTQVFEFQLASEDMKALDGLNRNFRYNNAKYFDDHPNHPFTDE
Experimental: as §1, §2, §3, §4, §5

[3] = target: T3, Pseudomonas testosteroni 3α-hydroxysteroid dehydrogenase (Comamonas testosteroni, UniProt P80702)
T3 construct: purchased Sigma (St. Louis, Mo.) Lot Number 053K8624 (catalogue number not given)
T3 sequence (P80702 whole entry): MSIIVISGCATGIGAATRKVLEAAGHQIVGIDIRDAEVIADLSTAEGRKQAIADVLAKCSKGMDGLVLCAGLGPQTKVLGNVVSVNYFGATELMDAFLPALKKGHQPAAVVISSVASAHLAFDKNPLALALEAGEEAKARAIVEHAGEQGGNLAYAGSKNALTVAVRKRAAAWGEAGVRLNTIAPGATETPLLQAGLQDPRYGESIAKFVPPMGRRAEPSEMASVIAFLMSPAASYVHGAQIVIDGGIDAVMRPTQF
Experimental: as §1, §2, §3, §4, §5

[4] = target: T4, horse liver alcohol dehydrogenase (HLAD) (Equus caballus, UniProt P00327)
T4 construct: purchased Sigma (St. Louis, Mo.) Lot Number 51K7520 (catalogue number not given)
T4 sequence (P00327 2-375 limits assumed): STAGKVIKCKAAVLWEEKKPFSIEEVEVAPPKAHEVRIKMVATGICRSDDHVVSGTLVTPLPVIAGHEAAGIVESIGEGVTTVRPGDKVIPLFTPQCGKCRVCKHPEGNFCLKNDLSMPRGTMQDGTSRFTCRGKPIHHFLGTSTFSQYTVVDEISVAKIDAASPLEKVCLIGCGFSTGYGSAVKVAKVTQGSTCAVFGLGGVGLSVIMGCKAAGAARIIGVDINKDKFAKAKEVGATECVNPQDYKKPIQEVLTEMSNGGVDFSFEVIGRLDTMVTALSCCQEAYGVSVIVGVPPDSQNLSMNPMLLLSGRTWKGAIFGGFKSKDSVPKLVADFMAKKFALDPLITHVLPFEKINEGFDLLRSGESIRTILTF
Experimental: as §1, §2, §3, §4, §5

Q: Which “reduction of probe (fluorescence increase)” value [1] does the source give for `CC(=O)c1cc(=O)oc2c3c4c(cc12)CCCN4CCC3` [compound 5, 8-Acetyl-2,3,5,6-tetrahydro-1H,4H-11-oxa-3a-aza-benzo[de]anthracen-10-one] here?
A: not acceptant

Q: And the “reduction of probe (fluorescence increase)” value [2]?
A: converted rapidly and selectively

Q: What about the “reduction of probe (fluorescence increase)” value [3] of the same compound?
A: converted rapidly and selectively

Q: And the “reduction of probe (fluorescence increase)” value [4]?
A: not acceptant
